Data published in PubChem BioAssay AID1963448 (Molecular Pharmacology Branch, DTP, NCI, 2024).

Test system: 616215-338-R-J1-PDC complex spheroid growth, % test/control
Assay: Anticancer human tumor 616215-338-R-J1-PDC patient-derived colon adenocarcinoma cell line growth inhibition [Asc]
Conditions: for IC50: curve of first compound; for viability, T/C: stronger effect = lower value
Outline: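 Complex spheroids combining tumor cells with HUVEC endothelial cells and human MSCs, at 37 degrees C, 5% CO2; agents tested alone or combined, half-log dilutions from at or near clinical Cmax, or 10 microM if Cmax unknown.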

[1] = second compound 0.1 µM, first compound 0.0316 µM
[2] = second compound 0.1 µM, first compound 0.1 µM
[3] = second compound 0.1 µM, first compound 0.316 µM
[4] = second compound 0.1 µM, first compound 1 µM
[5] = second compound 0.316 µM, first compound 0.0316 µM
[6] = second compound 0.316 µM, first compound 0.1 µM
[7] = second compound 0.316 µM, first compound 0.316 µM
[8] = second compound 0.316 µM, first compound 1 µM
[9] = second compound 1 µM, first compound 0.0316 µM
[10] = second compound 1 µM, first compound 0.1 µM
[11] = second compound 1 µM, first compound 0.316 µM
[12] = second compound 1 µM, first compound 1 µM
[13] = second compound 3.16 µM, first compound 0.0316 µM
[14] = second compound 3.16 µM, first compound 0.1 µM
[15] = second compound 3.16 µM, first compound 0.316 µM
[16] = second compound 3.16 µM, first compound 1 µM
[17] = second compound 10 µM, first compound 0.0316 µM
[18] = second compound 10 µM, first compound 0.1 µM
[19] = second compound 10 µM, first compound 0.316 µM
[20] = second compound 10 µM, first compound 1 µM
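Note: spheroids exposed to agents for seven days before readout.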
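Throughout, for viability, T/C: 100% = DMSO vehicle control viability.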

SMILES: CNC(C)C(=O)NC1CN(S(=O)(=O)c2cccc(S(=O)(=O)N3CCC4CCC(C(=O)NC(c5ccccc5)c5ccccc5)N4C(=O)C(NC(=O)C(C)NC)C3)c2)CCC2CCC(C(=O)NC(c3ccccc3)c3ccccc3)N2C1=O (stereo not given) + Cc1c(S(C)(=O)=O)c(-c2cc(F)cc(N3CCN(c4ccc(NS(=O)(=O)c5ccc(NC(CCN6CCC(C(=O)OCCCP(=O)(O)O)CC6)CSc6ccccc6)c(S(=O)(=O)C(F)(F)F)c5)cc4)CC3)c2)c(-c2ccc(Cl)cc2)n1C(C)C
- IC50 (second compound 0.1 µM): > 1000 nM
- IC50 (second compound 0.316 µM): > 1000 nM
- IC50 (second compound 1 µM): > 1000 nM
- IC50 (second compound 3.16 µM): < 3.16 nM
- IC50 (second compound 10 µM): < 3.16 nM
- viability, T/C (second compound 0.1 µM, first compound 0.00316 µM): 94%
- viability, T/C (second compound 0.1 µM, first compound 0.01 µM): 99.3%
- viability, T/C [1]: 92.2%
- viability, T/C [2]: 94.8%
- viability, T/C [3]: 100%
- viability, T/C [4]: 97.5%
- viability, T/C (second compound 0.316 µM, first compound 0.00316 µM): 96.8%
- viability, T/C (second compound 0.316 µM, first compound 0.01 µM): 97.4%
- viability, T/C [5]: 92%
- viability, T/C [6]: 97%
- viability, T/C [7]: 87.9%
- viability, T/C [8]: 94.7%
- viability, T/C (second compound 1 µM, first compound 0.00316 µM): 73.1%
- viability, T/C (second compound 1 µM, first compound 0.01 µM): 76%
- viability, T/C [9]: 73.2%
- viability, T/C [10]: 76%
- viability, T/C [11]: 69.6%
- viability, T/C [12]: 68.7%
- viability, T/C (second compound 3.16 µM, first compound 0.00316 µM): 45.5%
- viability, T/C (second compound 3.16 µM, first compound 0.01 µM): 40%
- viability, T/C [13]: 40.1%
- viability, T/C [14]: 39.5%
- viability, T/C [15]: 36.2%
- viability, T/C [16]: 28.6%
- viability, T/C (second compound 10 µM, first compound 0.00316 µM): 26.5%
- viability, T/C (second compound 10 µM, first compound 0.01 µM): 23.9%
- viability, T/C [17]: 27.9%
- viability, T/C [18]: 26.4%
- viability, T/C [19]: 22.4%
- viability, T/C [20]: 19.1%

SMILES: NC(=O)C(=Cn1cnc(-c2cc(C(F)(F)F)cc(C(F)(F)F)c2)n1)c1cncnc1 + Cc1c(S(C)(=O)=O)c(-c2cc(F)cc(N3CCN(c4ccc(NS(=O)(=O)c5ccc(NC(CCN6CCC(C(=O)OCCCP(=O)(O)O)CC6)CSc6ccccc6)c(S(=O)(=O)C(F)(F)F)c5)cc4)CC3)c2)c(-c2ccc(Cl)cc2)n1C(C)C
- IC50 (second compound 0.1 µM): > 300 nM
- IC50 (second compound 0.316 µM): 143 nM
- IC50 (second compound 1 µM): 36.6 nM
- IC50 (second compound 3.16 µM): < 0.949 nM
- IC50 (second compound 10 µM): < 0.949 nM
- viability, T/C (second compound 0.1 µM, first compound 0.000949 µM): 91.7%
- viability, T/C (second compound 0.1 µM, first compound 0.003 µM): 91.1%
- viability, T/C (second compound 0.1 µM, first compound 0.00949 µM): 87.2%
- viability, T/C (second compound 0.1 µM, first compound 0.03 µM): 91.7%
- viability, T/C (second compound 0.1 µM, first compound 0.0949 µM): 81%
- viability, T/C (second compound 0.1 µM, first compound 0.3 µM): 71.8%
- viability, T/C (second compound 0.316 µM, first compound 0.000949 µM): 95.6%
- viability, T/C (second compound 0.316 µM, first compound 0.003 µM): 97.5%
- viability, T/C (second compound 0.316 µM, first compound 0.00949 µM): 89.3%
- viability, T/C (second compound 0.316 µM, first compound 0.03 µM): 78.8%
- viability, T/C (second compound 0.316 µM, first compound 0.0949 µM): 64.7%
- viability, T/C (second compound 0.316 µM, first compound 0.3 µM): 26.7%
- viability, T/C (second compound 1 µM, first compound 0.000949 µM): 67%
- viability, T/C (second compound 1 µM, first compound 0.003 µM): 71.3%
- viability, T/C (second compound 1 µM, first compound 0.00949 µM): 68.5%
- viability, T/C (second compound 1 µM, first compound 0.03 µM): 55.9%
- viability, T/C (second compound 1 µM, first compound 0.0949 µM): 20.6%
- viability, T/C (second compound 1 µM, first compound 0.3 µM): 1.76%
- viability, T/C (second compound 3.16 µM, first compound 0.000949 µM): 41.7%
- viability, T/C (second compound 3.16 µM, first compound 0.003 µM): 42.7%
- viability, T/C (second compound 3.16 µM, first compound 0.00949 µM): 34.4%
- viability, T/C (second compound 3.16 µM, first compound 0.03 µM): 24.3%
- viability, T/C (second compound 3.16 µM, first compound 0.0949 µM): 2.24%
- viability, T/C (second compound 3.16 µM, first compound 0.3 µM): 0.67%
- viability, T/C (second compound 10 µM, first compound 0.000949 µM): 27.9%
- viability, T/C (second compound 10 µM, first compound 0.003 µM): 25%
- viability, T/C (second compound 10 µM, first compound 0.00949 µM): 19.2%
- viability, T/C (second compound 10 µM, first compound 0.03 µM): 6.13%
- viability, T/C (second compound 10 µM, first compound 0.0949 µM): 0.4%
- viability, T/C (second compound 10 µM, first compound 0.3 µM): 0.25%

SMILES: C#Cc1c(F)ccc2cc(O)cc(-c3ncc4c(N5CC6CCC(C5)N6)nc(OCC56CCCN5CC(F)C6)nc4c3F)c12 (stereo not given) + Cc1c(S(C)(=O)=O)c(-c2cc(F)cc(N3CCN(c4ccc(NS(=O)(=O)c5ccc(NC(CCN6CCC(C(=O)OCCCP(=O)(O)O)CC6)CSc6ccccc6)c(S(=O)(=O)C(F)(F)F)c5)cc4)CC3)c2)c(-c2ccc(Cl)cc2)n1C(C)C
- IC50 (second compound 0.1 µM): > 10000 nM
- IC50 (second compound 0.316 µM): > 10000 nM
- IC50 (second compound 1 µM): 6410 nM
- IC50 (second compound 3.16 µM): < 31.6 nM
- IC50 (second compound 10 µM): < 31.6 nM
- viability, T/C [1]: 92.2%
- viability, T/C [2]: 88.2%
- viability, T/C [3]: 93.3%
- viability, T/C [4]: 98.2%
- viability, T/C (second compound 0.1 µM, first compound 3.16 µM): 87.5%
- viability, T/C (second compound 0.1 µM, first compound 10 µM): 56.6%
- viability, T/C [5]: 96.6%
- viability, T/C [6]: 91.9%
- viability, T/C [7]: 88.8%
- viability, T/C [8]: 97.4%
- viability, T/C (second compound 0.316 µM, first compound 3.16 µM): 72.1%
- viability, T/C (second compound 0.316 µM, first compound 10 µM): 52%
- viability, T/C [9]: 68.8%
- viability, T/C [10]: 70%
- viability, T/C [11]: 66.8%
- viability, T/C [12]: 68.2%
- viability, T/C (second compound 1 µM, first compound 3.16 µM): 61.1%
- viability, T/C (second compound 1 µM, first compound 10 µM): 42.8%
- viability, T/C [13]: 39.5%
- viability, T/C [14]: 38.8%
- viability, T/C [15]: 40.3%
- viability, T/C [16]: 39.6%
- viability, T/C (second compound 3.16 µM, first compound 3.16 µM): 34.1%
- viability, T/C (second compound 3.16 µM, first compound 10 µM): 9.96%
- viability, T/C [17]: 29.7%
- viability, T/C [18]: 25.5%
- viability, T/C [19]: 29.8%
- viability, T/C [20]: 21.8%
- viability, T/C (second compound 10 µM, first compound 3.16 µM): 10.8%
- viability, T/C (second compound 10 µM, first compound 10 µM): 0.92%
